Measured values published in patent publication US20120245137A1 (Zalicus Pharmaceuticals Ltd., priority 2009, published 2012).
pIC50: −log10 of the molar value. Where two headings read alike, the source gives them in different places.

Legend:
Assay type in all cases: cell-based
CAv1.2 = CAv1.2 (Homo sapiens, UniProt Q13936); assay: FLIPR data, CAv1.2 channel blocking (Table 6); conditions: for CAv1.2 IC50 Ratio closed/inact.: ratio closed/inactivated IC50
T-type calcium channel [1] = target: T-type calcium channel (Homo sapiens, UniProt O95180); assay: T-type channel blocking, FLIPR data (Table 6); conditions: for CAv3.2 IC50 Ratio closed/inact.: CAv3.2, ratio closed/inactivated IC50
Text: (§1) Another method, high-throughput spectrophotometric assay, utilizes loading of the cell lines with a fluorescent dye sensitive to intracellular calcium concentration and subsequent examination of the effects of compounds on the ability of depolarization by potassium chloride or other means to alter intracellular calcium levels.

T-type calcium channel [2] = target: T-type calcium channel (Homo sapiens, UniProt O43497); assay: T-type channel blocking, FLIPR data (Table 6); conditions: CAv3.1
Text: as §1

Human Cav 2.2 channels = Human Cav 2.2 channels (Homo sapiens, UniProt Q00975); assay: Fluorescent assay for CaV2.2 channels using potassium depolarization (VIPR/FLIPR); conditions: FLIPR data; for CAv2.2 IC50 Ratio closed/inact.: ratio closed/inactivated IC50
Summary of the method: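 Fluo-4 calcium fluorescence (480/535 nm) was recorded on VIPR or FLIPR after depolarization to 70 mM final potassium. Before this, cells were preincubated 30 min at 25 °C with compound in 4–30 mM potassium, so that state-dependent block could be assessed; the cells were HEK293 coexpressing Cav2.2, α2δ, β and Kir2.3.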

[3] = closed state, read-out: CAv1.2 IC50 Closed
[4] = inactivated state, read-out: CAv1.2 IC50 Inact.
[5] = CAv3.2, closed state, read-out: CAv3.2 IC50 Closed
[6] = CAv3.2, inactivated state, read-out: CAv3.2 IC50 Inact.
[7] = closed state, read-out: CAv2.2 IC50 Closed
[8] = inactivated state, read-out: CAv2.2 IC50 Inact.

T-type calcium channel (Homo sapiens, UniProt O95180), sequence (O95180 whole entry): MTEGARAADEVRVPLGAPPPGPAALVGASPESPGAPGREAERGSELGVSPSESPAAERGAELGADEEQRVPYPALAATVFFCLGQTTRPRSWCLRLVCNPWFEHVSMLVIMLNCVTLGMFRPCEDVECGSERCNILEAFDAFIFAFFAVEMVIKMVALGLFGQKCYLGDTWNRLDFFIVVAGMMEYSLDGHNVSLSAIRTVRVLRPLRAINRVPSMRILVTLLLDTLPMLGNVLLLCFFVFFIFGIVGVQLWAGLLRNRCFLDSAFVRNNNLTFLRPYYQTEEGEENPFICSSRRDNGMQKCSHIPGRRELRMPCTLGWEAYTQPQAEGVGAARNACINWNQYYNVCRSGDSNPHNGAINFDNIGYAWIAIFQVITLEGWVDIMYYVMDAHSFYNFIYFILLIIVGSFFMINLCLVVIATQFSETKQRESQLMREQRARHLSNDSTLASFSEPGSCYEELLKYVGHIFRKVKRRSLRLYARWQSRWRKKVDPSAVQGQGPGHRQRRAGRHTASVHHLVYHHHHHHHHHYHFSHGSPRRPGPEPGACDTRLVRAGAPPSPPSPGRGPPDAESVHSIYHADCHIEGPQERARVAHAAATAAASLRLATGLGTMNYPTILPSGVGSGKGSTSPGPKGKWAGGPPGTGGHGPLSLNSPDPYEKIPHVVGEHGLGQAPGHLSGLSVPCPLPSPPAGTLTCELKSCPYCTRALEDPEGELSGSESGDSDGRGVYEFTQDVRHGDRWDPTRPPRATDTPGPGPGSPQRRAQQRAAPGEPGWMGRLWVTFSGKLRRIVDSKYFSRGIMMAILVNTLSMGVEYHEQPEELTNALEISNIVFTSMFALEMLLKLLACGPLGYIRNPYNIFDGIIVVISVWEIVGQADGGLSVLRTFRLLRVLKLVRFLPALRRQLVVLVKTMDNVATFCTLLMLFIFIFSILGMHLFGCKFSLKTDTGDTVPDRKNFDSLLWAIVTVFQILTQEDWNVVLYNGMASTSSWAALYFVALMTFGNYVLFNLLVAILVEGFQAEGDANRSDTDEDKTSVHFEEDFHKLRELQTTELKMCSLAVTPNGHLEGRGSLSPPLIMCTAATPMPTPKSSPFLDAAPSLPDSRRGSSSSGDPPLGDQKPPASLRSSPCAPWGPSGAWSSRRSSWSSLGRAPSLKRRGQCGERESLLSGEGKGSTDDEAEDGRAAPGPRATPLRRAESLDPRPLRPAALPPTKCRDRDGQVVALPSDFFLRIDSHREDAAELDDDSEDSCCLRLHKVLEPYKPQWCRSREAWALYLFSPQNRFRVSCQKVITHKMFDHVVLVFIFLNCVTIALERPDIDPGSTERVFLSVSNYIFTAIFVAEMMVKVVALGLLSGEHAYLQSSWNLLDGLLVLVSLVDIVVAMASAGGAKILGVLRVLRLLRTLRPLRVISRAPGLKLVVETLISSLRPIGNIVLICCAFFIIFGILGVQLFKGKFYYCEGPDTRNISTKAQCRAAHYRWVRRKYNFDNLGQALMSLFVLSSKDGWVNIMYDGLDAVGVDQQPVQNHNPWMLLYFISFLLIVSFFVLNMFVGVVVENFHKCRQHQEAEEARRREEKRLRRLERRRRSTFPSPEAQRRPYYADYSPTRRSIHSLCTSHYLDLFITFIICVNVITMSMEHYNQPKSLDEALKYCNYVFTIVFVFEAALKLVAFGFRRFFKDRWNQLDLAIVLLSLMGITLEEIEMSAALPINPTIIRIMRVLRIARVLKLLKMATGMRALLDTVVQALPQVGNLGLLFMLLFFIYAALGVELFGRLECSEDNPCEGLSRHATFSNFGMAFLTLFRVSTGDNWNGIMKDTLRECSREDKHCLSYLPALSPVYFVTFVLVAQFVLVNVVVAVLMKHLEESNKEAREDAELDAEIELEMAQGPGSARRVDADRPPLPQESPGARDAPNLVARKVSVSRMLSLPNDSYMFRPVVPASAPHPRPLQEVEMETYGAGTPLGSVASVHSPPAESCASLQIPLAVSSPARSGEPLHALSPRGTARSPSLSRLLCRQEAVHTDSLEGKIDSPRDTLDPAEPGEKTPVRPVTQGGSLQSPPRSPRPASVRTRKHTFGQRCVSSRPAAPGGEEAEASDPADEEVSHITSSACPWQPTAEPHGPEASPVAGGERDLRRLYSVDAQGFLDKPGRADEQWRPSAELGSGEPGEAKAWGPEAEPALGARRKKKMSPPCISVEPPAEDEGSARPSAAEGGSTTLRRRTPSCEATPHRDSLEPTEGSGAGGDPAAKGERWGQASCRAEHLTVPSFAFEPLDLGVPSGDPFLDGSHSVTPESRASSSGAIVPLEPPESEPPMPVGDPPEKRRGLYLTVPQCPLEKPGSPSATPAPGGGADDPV
T-type calcium channel (Homo sapiens, UniProt O43497), sequence (O43497 whole entry): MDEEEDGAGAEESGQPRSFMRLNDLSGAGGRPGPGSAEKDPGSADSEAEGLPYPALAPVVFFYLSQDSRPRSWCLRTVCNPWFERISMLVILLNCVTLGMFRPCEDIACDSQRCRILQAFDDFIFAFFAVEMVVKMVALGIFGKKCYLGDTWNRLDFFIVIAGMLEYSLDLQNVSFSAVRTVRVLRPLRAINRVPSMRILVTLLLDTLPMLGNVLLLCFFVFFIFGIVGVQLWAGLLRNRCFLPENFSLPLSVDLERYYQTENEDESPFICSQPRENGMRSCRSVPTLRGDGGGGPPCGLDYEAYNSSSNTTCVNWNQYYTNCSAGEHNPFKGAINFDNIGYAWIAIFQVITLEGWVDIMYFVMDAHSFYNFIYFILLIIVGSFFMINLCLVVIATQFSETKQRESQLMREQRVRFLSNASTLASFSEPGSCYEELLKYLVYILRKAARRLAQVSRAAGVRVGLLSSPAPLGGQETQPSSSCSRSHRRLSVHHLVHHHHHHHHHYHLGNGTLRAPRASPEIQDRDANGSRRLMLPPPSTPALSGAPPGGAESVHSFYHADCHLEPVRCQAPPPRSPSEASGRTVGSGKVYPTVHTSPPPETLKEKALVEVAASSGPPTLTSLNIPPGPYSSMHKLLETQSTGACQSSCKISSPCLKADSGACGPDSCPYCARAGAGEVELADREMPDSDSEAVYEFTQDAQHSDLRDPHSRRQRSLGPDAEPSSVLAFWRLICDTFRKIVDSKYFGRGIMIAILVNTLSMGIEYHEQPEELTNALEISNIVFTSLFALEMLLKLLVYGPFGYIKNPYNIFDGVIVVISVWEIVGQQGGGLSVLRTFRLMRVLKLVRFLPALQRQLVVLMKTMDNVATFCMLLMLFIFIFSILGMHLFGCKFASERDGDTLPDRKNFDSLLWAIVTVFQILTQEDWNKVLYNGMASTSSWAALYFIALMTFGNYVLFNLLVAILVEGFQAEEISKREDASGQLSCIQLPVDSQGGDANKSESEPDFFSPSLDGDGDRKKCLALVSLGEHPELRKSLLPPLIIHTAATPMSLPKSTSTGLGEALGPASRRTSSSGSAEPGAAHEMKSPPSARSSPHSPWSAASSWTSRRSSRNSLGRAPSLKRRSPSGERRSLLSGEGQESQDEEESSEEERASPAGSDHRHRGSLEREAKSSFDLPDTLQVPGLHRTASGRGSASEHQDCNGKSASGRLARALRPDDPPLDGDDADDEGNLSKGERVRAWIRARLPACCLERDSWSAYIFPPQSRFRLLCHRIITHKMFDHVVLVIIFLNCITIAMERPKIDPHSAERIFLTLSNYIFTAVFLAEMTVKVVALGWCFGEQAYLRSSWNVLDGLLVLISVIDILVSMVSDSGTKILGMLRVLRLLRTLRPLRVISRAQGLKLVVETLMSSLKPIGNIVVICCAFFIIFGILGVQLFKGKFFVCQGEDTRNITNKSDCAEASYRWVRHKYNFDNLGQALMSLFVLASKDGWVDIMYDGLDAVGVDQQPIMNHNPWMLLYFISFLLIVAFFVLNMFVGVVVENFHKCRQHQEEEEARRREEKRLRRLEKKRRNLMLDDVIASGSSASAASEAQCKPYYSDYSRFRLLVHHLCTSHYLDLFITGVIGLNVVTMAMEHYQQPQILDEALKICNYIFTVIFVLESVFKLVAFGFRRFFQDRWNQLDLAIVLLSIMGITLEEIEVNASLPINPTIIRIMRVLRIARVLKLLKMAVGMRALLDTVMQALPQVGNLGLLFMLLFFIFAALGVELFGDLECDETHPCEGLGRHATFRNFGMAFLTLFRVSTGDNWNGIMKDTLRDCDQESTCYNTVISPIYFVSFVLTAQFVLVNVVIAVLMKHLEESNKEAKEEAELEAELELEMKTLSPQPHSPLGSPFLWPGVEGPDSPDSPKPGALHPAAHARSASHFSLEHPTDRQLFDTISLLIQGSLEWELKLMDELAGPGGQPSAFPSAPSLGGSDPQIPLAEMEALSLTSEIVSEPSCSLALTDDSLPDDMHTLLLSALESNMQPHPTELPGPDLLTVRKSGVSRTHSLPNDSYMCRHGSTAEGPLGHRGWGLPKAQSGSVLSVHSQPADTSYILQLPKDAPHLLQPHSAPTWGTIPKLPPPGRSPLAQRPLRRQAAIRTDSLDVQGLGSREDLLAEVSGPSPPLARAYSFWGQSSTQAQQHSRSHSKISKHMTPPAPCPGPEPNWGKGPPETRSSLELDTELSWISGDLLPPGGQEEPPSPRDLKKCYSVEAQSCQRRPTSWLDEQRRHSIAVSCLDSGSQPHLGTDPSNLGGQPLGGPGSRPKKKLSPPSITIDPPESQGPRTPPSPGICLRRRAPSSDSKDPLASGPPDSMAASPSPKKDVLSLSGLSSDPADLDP

SMILES	pIC50 (CAv1.2; [3])	pIC50 (CAv1.2; [4])	CAv1.2 IC50 Ratio closed/inact. (CAv1.2)	pIC50 (T-type calcium channel [1]; [5])	pIC50 (T-type calcium channel [1]; [6])	CAv3.2 IC50 Ratio closed/inact. (T-type calcium channel [1])	pIC50 (T-type calcium channel [2])	pIC50 (Human Cav 2.2 channels; [7])	pIC50 (Human Cav 2.2 channels; [8])	CAv2.2 IC50 Ratio closed/inact. (Human Cav 2.2 channels)
O=C(NC[C@H]1C[C@H](S(=O)(=O)c2cc(F)cc(C(F)(F)F)c2)C1)c1ccc(Cl)cn1 [Compound 702]	5.01	5.14	1.4	5.12	5.42	2	≤ 5.00	5.40	6.05	4.4
O=C(NC[C@H]1C[C@H](S(=O)(=O)c2cc(F)cc(C(F)(F)F)c2)C1)c1ccc(C(F)(F)F)cc1 [Compound 703]	5.09	5.32	1.7	5.38	5.86	3	5.73	5.19	6.08	7.8
O=C(NC[C@H]1C[C@H](S(=O)(=O)c2cc(F)cc(C(F)(F)F)c2)C1)c1ccc(C(F)(F)F)nc1 [Compound 704]		≤ 5.00		≤ 5.00	5.06	1.1	≤ 5.00	5.00	5.78	6.1
O=C(NC[C@H]1C[C@H](S(=O)(=O)c2cc(F)cc(C(F)(F)F)c2)C1)c1cnc(C(F)(F)F)nc1 [Compound 705]	≤ 5.00	≤ 5.00		≤ 5.00	5.00	1	≤ 5.00	5.00	5.61	4
O=C(NC[C@H]1C[C@H](S(=O)(=O)c2cc(F)cc(C(F)(F)F)c2)C1)c1ccc(OCC(F)(F)F)nc1 [Compound 706]	5.10	5.51	2.6	5.40	6.13	5.4	5.54	5.40	6.07	4.6
O=C(NC[C@H]1C[C@H](S(=O)(=O)c2cc(F)cc(C(F)(F)F)c2)C1)c1ccnc(C(F)(F)F)n1 [Compound 710]	≤ 5.00	≤ 5.00		≤ 5.00	5.00	1	≤ 5.00	5.30	5.83	3.4
CC(C)S(=O)(=O)c1cc(C(F)(F)F)cnc1C(=O)N[C@H]1C[C@H](CC(C)(C)S(=O)(=O)c2cccc(C(F)(F)F)c2)C1 [Compound 716]	5.11	5.18	1.2	≤ 5.00	5.16	1.5	≤ 5.00	5.22	6.66	27.5
CC(C)(C[C@H]1C[C@H](NC(=O)c2ccc(Cl)cc2S(C)(=O)=O)C1)S(=O)(=O)c1cccc(C(F)(F)F)c1 [Compound 718]	≤ 5.00	≤ 5.00		5.25	5.44	1.5	≤ 5.00	5.33	6.82	31.4
CC(C)(C[C@H]1C[C@H](NC(=O)c2ccc(C(F)(F)F)cc2)C1)S(=O)(=O)c1cccc(C(F)(F)F)c1 [Compound 719]	5.56	6.12	3.6	6.14	6.19	1.1	5.75	5.91	6.96	11.3
CC(C)(C[C@H]1C[C@H](NC(=O)c2ccc(Cl)cn2)C1)S(=O)(=O)c1cccc(C(F)(F)F)c1 [Compound 720]	5.15	5.61	2.9	5.40	5.69	1.9	5.35	6.08	6.80	5.2
CC(C)(C[C@H]1C[C@H](NC(=O)c2cnc(C(F)(F)F)nc2)C1)S(=O)(=O)c1cccc(C(F)(F)F)c1 [Compound 721]	≤ 5.00	5.34	2.2	5.07	5.36	2	≤ 5.00	5.31	6.29	9.5
CC(C)(C[C@H]1C[C@H](NC(=O)c2ccc(C(F)(F)F)cn2)C1)S(=O)(=O)c1cccc(C(F)(F)F)c1 [Compound 722]	5.09	5.59	3.1	5.43	5.58	1.4	5.56	5.92	6.64	5.3
CC(C)(C[C@H]1C[C@H](NC(=O)c2ccc(C(F)(F)F)nc2)C1)S(=O)(=O)c1cccc(C(F)(F)F)c1 [Compound 723]	≤ 5.00	5.31	2	5.21	5.29	1.2	5.10	5.50	6.31	6.4
CC(C)(C[C@H]1C[C@H](NC(=O)c2ccc(OCC(F)(F)F)nc2)C1)S(=O)(=O)c1cccc(C(F)(F)F)c1 [Compound 724]	5.28	5.92	4.3	5.65	6.08	2.7	5.85	6.01	7.05	10.9
Cn1nc(C(F)(F)F)cc1C(=O)N[C@H]1C[C@H](CC(C)(C)S(=O)(=O)c2cccc(C(F)(F)F)c2)C1 [Compound 725]	5.17	5.56	2.4	5.64	6.17	3.4	5.44	5.79	6.85	11.6
CC(C)S(=O)(=O)c1cc(C(F)(F)F)cnc1C(=O)N[C@H]1C[C@@H](CC(C)(C)S(=O)(=O)c2cccc(C(F)(F)F)c2)C1 [Compound 729]	≤ 5.00	5.03	1.1	5.09	5.17	1.2	5.08	5.16	6.82	46
CC(C)(C[C@H]1C[C@@H](NC(=O)c2ccc(Cl)cc2S(C)(=O)=O)C1)S(=O)(=O)c1cccc(C(F)(F)F)c1 [Compound 731]	≤ 5.00	≤ 5.00		5.20	5.18	1	≤ 5.00	5.27	6.64	23.4
CC(C)(C[C@H]1C[C@@H](NC(=O)c2ccc(C(F)(F)F)cc2)C1)S(=O)(=O)c1cccc(C(F)(F)F)c1 [Compound 732]	5.54	6.21	4.7	6.24	6.12	0.8	5.42	6.04	7.22	15.3
CC(C)(C[C@H]1C[C@@H](NC(=O)c2ccc(Cl)cn2)C1)S(=O)(=O)c1cccc(C(F)(F)F)c1 [Compound 733]	5.14	5.40	1.8	5.34	5.85	3.3	5.21	6.30	7.30	10
CC(C)(C[C@H]1C[C@@H](NC(=O)c2cnc(C(F)(F)F)nc2)C1)S(=O)(=O)c1cccc(C(F)(F)F)c1 [Compound 734]	≤ 5.00	5.25	1.8	5.06	5.64	3.8	≤ 5.00	5.47	6.89	26.1
CC(C)(C[C@H]1C[C@@H](NC(=O)c2ccc(C(F)(F)F)cn2)C1)S(=O)(=O)c1cccc(C(F)(F)F)c1 [Compound 735]	5.20	5.43	1.7	5.34	5.84	3.1	5.45	6.16	7.15	9.9
CC(C)(C[C@H]1C[C@@H](NC(=O)c2ccc(C(F)(F)F)nc2)C1)S(=O)(=O)c1cccc(C(F)(F)F)c1 [Compound 736]	≤ 5.00	5.48	3	5.18	5.56	2.4	≤ 5.00	5.66	6.89	16.9
